The target in assay [1] is T1, Human Glucocorticoid Receptor (Homo sapiens, UniProt P04150).
T1 construct: endogenous in cells; host or cells: cytosol from IM-9 cell line
T1 sequence (P04150 1-777): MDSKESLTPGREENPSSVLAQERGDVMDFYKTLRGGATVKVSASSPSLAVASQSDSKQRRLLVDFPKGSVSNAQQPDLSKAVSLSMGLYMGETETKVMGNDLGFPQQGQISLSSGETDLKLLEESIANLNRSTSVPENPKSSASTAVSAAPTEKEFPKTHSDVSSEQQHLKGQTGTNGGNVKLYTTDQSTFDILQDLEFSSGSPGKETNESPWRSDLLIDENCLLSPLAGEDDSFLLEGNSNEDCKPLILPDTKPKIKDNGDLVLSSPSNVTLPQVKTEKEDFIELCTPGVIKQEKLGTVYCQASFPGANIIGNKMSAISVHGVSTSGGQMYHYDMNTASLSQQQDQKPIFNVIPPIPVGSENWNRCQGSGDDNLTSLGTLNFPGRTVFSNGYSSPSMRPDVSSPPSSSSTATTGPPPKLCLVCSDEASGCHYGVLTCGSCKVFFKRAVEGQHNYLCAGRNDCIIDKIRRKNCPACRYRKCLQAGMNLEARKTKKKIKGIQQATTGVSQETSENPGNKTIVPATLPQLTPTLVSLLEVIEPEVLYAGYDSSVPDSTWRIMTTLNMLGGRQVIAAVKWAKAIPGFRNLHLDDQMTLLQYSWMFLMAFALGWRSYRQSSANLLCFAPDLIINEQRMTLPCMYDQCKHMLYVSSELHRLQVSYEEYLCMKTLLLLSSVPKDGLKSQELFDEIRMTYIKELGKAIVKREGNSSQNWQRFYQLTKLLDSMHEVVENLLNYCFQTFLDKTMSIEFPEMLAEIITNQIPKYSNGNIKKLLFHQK
Kind of assay: Competition Binding in IM-9 Human Glucocorticoid Receptor (GR IM-9). As to conditions: cytosol from IM-9 cell line, 1.5 nM [3H]-Dexamethasone, 4° C. for 6 hours. Summed up:
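Radioligand competition using 100 μg IM-9 cell cytosol and 1.5 nM [3H]-dexamethasone, incubated 6 h at 4° C in TES/molybdate buffer, pH 7.4. Filtration on PEI-treated GF/B filters, scintillation counting; nonspecific binding defined with 10 μM triamcinolone.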

The target in assay [2] is T2, Rat Androgen Receptor (Rattus norvegicus, UniProt P15207).
T2 construct: purchased Life Technologies A15880
T2 sequence (P15207 646-902 limits assumed): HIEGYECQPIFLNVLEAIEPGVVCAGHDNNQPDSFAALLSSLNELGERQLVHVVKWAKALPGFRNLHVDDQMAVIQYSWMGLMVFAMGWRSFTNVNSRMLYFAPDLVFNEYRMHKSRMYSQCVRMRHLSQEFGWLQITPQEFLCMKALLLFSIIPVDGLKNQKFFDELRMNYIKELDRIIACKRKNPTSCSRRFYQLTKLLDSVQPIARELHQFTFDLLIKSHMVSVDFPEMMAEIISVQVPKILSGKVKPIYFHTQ
Briefly: Rat Androgen Receptor Binding (polarscreen AR competitor assay, fluorescence polarization). Conditions: displacement of Fluormone AL Green, 4 hours at RT, read-out: AR rat-fluorimetric. In short, it runs like this:
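Fluorescence-polarization competition of Fluormone AL Green binding to rat androgen receptor; compounds screened in duplicate at 1 and 10 μM, 4 h at RT, read at λexc 485/λem 535 nm. IC50 from 1:10 dilution series, 10 μM to 0.1 nM, in 1× buffer.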

Assay [3] deals with T3, human androgen receptor (Homo sapiens, UniProt P10275, T878A).
T3 construct: endogenously expressed human androgen receptor using the LnCap prostate cancer cell line; endogenous in cells; host or cells: LNCaP prostate cancer cell line (whole cells)
T3 sequence (P10275 1-920 T878A): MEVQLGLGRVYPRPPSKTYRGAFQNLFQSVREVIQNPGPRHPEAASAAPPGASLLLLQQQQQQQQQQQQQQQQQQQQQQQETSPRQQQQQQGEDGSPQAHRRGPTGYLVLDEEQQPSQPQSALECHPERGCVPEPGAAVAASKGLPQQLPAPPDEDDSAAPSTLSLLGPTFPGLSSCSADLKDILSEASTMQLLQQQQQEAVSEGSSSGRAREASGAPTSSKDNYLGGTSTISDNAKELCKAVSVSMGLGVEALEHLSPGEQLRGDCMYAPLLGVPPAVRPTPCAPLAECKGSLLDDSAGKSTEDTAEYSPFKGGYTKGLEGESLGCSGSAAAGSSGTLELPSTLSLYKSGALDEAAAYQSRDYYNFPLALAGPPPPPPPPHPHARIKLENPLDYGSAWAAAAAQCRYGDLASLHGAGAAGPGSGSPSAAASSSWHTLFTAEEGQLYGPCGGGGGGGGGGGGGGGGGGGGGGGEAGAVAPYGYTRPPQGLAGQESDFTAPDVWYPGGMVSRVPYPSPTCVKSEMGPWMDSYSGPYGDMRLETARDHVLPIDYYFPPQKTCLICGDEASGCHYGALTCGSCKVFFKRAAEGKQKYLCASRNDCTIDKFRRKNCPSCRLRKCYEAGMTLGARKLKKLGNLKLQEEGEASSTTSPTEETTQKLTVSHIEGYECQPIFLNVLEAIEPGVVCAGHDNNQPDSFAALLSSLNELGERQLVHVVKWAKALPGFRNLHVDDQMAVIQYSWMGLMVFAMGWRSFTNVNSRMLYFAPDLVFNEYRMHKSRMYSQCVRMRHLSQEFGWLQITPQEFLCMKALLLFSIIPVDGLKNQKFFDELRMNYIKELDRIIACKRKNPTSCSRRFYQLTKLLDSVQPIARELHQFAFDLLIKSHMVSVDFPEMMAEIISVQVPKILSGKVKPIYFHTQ
Kind of assay: Human Androgen Receptor Binding (radioligand binding, LnCap prostate cancer cell line). As to conditions: LnCap cells, displacement of [^3H]-methyltrienolone, 2 hours at 37° C.; read-out: AR LNCaP. Summed up: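 Whole-cell displacement of [3H]-methyltrienolone from endogenous AR (T878A) in LnCap cells, in RPMI with 0.1% BSA and triamcinolone acetonide. Compounds 10 μM to 0.1 nM in 1:10 steps, 2 h at 37 °C; cells washed, SDS-lysed, bound radioactivity by scintillation counting for IC50.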

For assay [4], the target named is T4, AR-Receptor (Homo sapiens, UniProt P10275).
T4 sequence (P10275 1-920 Q868H): T3 sequence (P10275 1-920 T878A) with Q868H, A878T
Kind of assay: Functional Assay AR-Receptor (MDA-MB-453 cells, luciferase). Type of assay: cell-based. Conditions: antagonist effect in the presence of DHT 1 nM, 24 h, luciferase luminescence, read-out: AR antag KB. As for the experimental part: Functional Assay AR-Receptor
MDA-MB-453 cells were cultured in DMEM (ATCC, ref 30-2002), 10% FBS, 1% penicillin, 1% streptomycin, 75 μg/ml gentamycin.
The day before performing assay, the cells were trypsinized and seeded in a 384-well plate (Greiner, ref 781098) (8000 cells/well) in 50 μl of complete culture medium. Cells were stores at 37° C. in a 5% CO2 atmosphere overnight.
The medium was replaced by 50 μl complete growth medium with 0.1% FBS. Compounds were dispensed with Echo 550 (Labcyte) and incubated for 24 h at 37° C. in a 5% CO2 atmosphere. Antagonist effect was measured in the presence of DHT 1 nM.
After incubation, assay medium removed and 20 μl of 1× Promega lysis buffer were added to each well. The plate was incubated 15 minutes at RT and quick-frozen to −80° C. and the thaw to room temperature. 50 μl of luciferase substrate (E4550, Promega) were added to each well and luminescence (integration time 1000 msec) was read in an EnSpire multilabel reader (Perkin Elmer).

Residue numbers refer to the chain shown, from its start.

As a reminder, the Kb is the affinity of an antagonist, worked out from how it opposes an agonist.

Consider `COC(=O)C1=C(N)NC(C)=C(C(C)=O)C1c1csc2ccccc12` (centres unmarked) [Example D1, Methyl 5-acetyl-2-amino-4-(benzo[b]thiophen-3-yl)-6-methyl-1,4-dihydropyridine-3-carboxylate], for which the IC50 in assay [1] was not below 1000 nM; in assay [2], less than 100 nM; in assay [3] it was 100 to 1000 nM.
For the compound `COC(=O)C1=C(C(F)(F)F)NC(C)=C(C(C)=O)C1c1csc2ccccc12` (centres unmarked) [Example C14, Methyl 5-acetyl-4-(benzo[b]thiophen-3-yl)-6-methyl-2-(trifluoromethyl)-1,4-dihydropyridine-3-carboxylate], the figures for the IC50 in assay [1], in assay [2] and in assay [3] were 100 to 1000 nM, 100 to 1000 nM and less than 100 nM, respectively.
For the compound `CC(=O)C1=C(C)NC(C)=C(C(=O)OCc2cccnc2)C1c1csc2ccc(Cl)cc12` (centres unmarked) [Example C60, Pyridin-3-ylmethyl 5-acetyl-4-(5-chlorobenzo[b]thiophen-3-yl)-2,6-dimethyl-1,4-dihydropyridine-3-carboxylate], in assay [4], the Kb was 100 to 1000 nM.
For the compound `CC(=O)C1=C(C)NC(C)=C(C(=O)OCC2CC2)C1c1csc2ccccc12` (centres unmarked) [Example C6, Cyclopropylmethyl 5-acetyl-4-(benzo[b]thiophen-3-yl)-2,6-dimethyl-1,4-dihydropyridine-3-carboxylate], the IC50 in assay [1] is less than 100 nM; in assay [2], 100 to 1000 nM; in assay [3], 100 to 1000 nM.
Consider `CC(=O)C1=C(C)NC(C)=C(C(=O)OCc2ccc(-c3ccncc3)nc2)C1c1csc2ncccc12` (centres unmarked) [Example L9, [2,4′-bipyridin]-5-ylmethyl 5-acetyl-2,6-dimethyl-4-(thieno[2,3-b]pyridin-3-yl)-1,4-dihydropyridine-3-carboxylate], for which the Kb in assay [4] lay within 100 to 1000 nM.
On the same count and under the same terms, with “Benzyl 5-acetyl-4-(7-(methoxycarbonyl)benzo[b]thiophen-3-yl)-2,6-dimethyl-1,4-dihydropyridine-3-carboxylate [Example J38]” the figure was 100 to 1000 nM; with `CC(=O)C1=C(C)NC(C)=C(C(=O)OCc2cccnc2)C1c1csc2ccc(F)cc12` (centres unmarked) [Example C57, Pyridin-3-ylmethyl 5-acetyl-4-(5-fluorobenzo[b]thiophen-3-yl)-2,6-dimethyl-1,4-dihydropyridine-3-carboxylate], 100 to 1000 nM.
The same measure, in the same setting: with `CC(=O)C1=C(C)NC(C2CC2)=C(C(=O)OCc2ccncc2)C1c1csc2ccc(Cl)cc12` (centres unmarked) [Example J34, Pyridin-4-ylmethyl 5-acetyl-4-(5-chlorobenzo[b]thiophen-3-yl)-2-cyclopropyl-6-methyl-1,4-dihydropyridine-3-carboxylate] the figure was 100 to 1000 nM.
As for `COC(=O)C1=C(C2CC2)NC(C)=C(C(C)=O)C1c1csc2ccc(F)cc12` (centres unmarked) [Example J22, Methyl 5-acetyl-2-cyclopropyl-4-(5-fluorobenzo[b]thiophen-3-yl)-6-methyl-1,4-dihydropyridine-3-carboxylate], the IC50 in assay [1], in assay [2] and in assay [3] was less than 100 nM in each case.
As to `COC(=O)C1=C(CF)NC(C)=C(C(C)=O)C1c1csc2ccccc12` (centres unmarked) [Example C20, Methyl 5-acetyl-4-(benzo[b]thiophen-3-yl)-2-(fluoromethyl)-6-methyl-1,4-dihydropyridine-3-carboxylate], the IC50 in assay [2] and in assay [3] was 100 to 1000 nM in each case.
Consider `CC(=O)C1=C(C)NC(C)=C(C(C)=O)C1c1csc2ncccc12` [Example H15, 1,1′-(2,6-Dimethyl-4-(thieno[2,3-b]pyridin-3-yl)-1,4-dihydropyridine-3,5-diyl)bis(ethan-1-one)], for which the IC50 is less than 100 nM in assay [2] and 100 to 1000 nM in assay [3].
Taken in the same sequence, the figures for `CC(=O)C1=C(C)NC(C)=C(C(C)=O)C1c1csc2ccccc12` [Example G1, 1,1′-(4-(benzo[b]thiophen-3-yl)-2,6-dimethyl-1,4-dihydropyridine-3,5-diyl)diethanone] were less than 100 nM and less than 100 nM.
